Test results from ChEMBL document CHEMBL1153508, “Evaluation of hydrogen bonds of ecdysteroids in the ligand-receptor interactions using a protein modeling system” (Bioorg Med Chem, 2009).

target: T1, Ecdysone receptor (Drosophila melanogaster, UniProt P34021); assay: Binding affinity to ecdysone receptor ligand binding domain in Drosophila melanogaster assessed as number of hydrogen bonds formed
T1 sequence (P34021 whole entry): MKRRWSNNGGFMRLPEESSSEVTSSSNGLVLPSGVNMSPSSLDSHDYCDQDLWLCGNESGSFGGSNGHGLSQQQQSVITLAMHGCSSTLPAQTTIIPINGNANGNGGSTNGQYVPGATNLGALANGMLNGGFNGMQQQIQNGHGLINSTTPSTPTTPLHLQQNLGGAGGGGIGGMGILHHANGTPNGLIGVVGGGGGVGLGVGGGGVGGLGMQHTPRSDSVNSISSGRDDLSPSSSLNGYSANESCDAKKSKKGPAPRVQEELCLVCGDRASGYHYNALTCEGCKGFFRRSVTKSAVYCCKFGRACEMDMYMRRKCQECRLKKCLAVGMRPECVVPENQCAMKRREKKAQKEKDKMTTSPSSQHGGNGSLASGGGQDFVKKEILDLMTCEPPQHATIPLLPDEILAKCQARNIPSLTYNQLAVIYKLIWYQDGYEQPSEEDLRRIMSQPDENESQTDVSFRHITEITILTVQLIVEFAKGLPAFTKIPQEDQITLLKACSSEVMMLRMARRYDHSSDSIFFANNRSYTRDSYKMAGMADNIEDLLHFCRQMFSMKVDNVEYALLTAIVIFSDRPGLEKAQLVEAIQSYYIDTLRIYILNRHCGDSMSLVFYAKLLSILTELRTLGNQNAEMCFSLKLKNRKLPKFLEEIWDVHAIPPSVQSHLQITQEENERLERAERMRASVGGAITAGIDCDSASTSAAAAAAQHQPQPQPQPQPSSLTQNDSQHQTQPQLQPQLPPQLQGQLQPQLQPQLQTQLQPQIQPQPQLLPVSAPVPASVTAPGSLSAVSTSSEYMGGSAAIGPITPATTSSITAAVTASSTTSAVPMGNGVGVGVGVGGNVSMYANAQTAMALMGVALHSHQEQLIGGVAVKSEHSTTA

SMILES	IC50 [µM]
CC(C)CC[C@@H](O)[C@](C)(O)[C@H]1CC[C@H]2[C@@H]3CC[C@H]4CCCC[C@]4(C)[C@H]3CC[C@]12C	> 245
CC(C)CC[C@@H](O)[C@](C)(O)[C@H]1CC[C@H]2[C@@H]3CC[C@H]4C[C@@H](O)CC[C@]4(C)[C@H]3CC[C@]12C	41.7
CC(C)CC[C@@H](O)[C@](C)(O)[C@H]1CC[C@H]2[C@@H]3CC(=O)[C@@H]4C[C@H](O)CC[C@]4(C)[C@H]3CC[C@]12C	89.1
CC(C)CC[C@@H](O)[C@](C)(O)[C@H]1CC[C@H]2[C@@H]3C[C@@H](O)[C@H]4C[C@@H](O)CC[C@]4(C)[C@H]3CC[C@]12C	> 245
CC(C)CC[C@@H](O)[C@](C)(O)[C@H]1CC[C@H]2[C@@H]3CC(=O)[C@@H]4C[C@@H](O)[C@@H](O)C[C@]4(C)[C@H]3CC[C@]12C	0.0589
CC(C)CC[C@@H](O)[C@](C)(O)[C@H]1CC[C@H]2[C@@H]3CC=C4CCCC[C@]4(C)[C@H]3CC[C@]12C	> 245
CC(C)CC[C@@H](O)[C@](C)(O)[C@H]1CC[C@H]2[C@@H]3CC(=O)[C@H]4C[C@H](O)CC[C@]4(C)[C@H]3CC[C@]12C	0.794
CC(C)CC[C@@H](O)[C@](C)(O)[C@H]1CC[C@H]2[C@@H]3C[C@H](O)[C@H]4C[C@@H](O)CC[C@]4(C)[C@H]3CC[C@]12C	> 245
CC(C)CC[C@@H](O)[C@](C)(O)[C@H]1CC[C@H]2[C@@H]3CC=C4C[C@@H](O)CC[C@]4(C)[C@H]3CC[C@]12C	41.7
CC(C)CC[C@@H](O)[C@](C)(O)[C@H]1CC[C@H]2[C@@H]3CC(=O)[C@H]4C[C@@H](O)CC[C@]4(C)[C@H]3CC[C@]12C	9.55
CC(C)CC[C@@H](O)[C@](C)(O)[C@H]1CC[C@H]2[C@@H]3CC(=O)[C@H]4C[C@@H](O)[C@@H](O)C[C@]4(C)[C@H]3CC[C@]12C	14.5
CC(C)CC[C@H](O)[C@](C)(O)[C@H]1CC[C@H]2[C@@H]3CC(=O)[C@H]4C[C@H](O)[C@H](O)C[C@]4(C)[C@H]3CC[C@]12C	38.9
CC(C)CC[C@@H](O)[C@](C)(O)[C@H]1CC[C@H]2[C@@H]3CC(=O)[C@H]4C[C@H](O)[C@H](O)C[C@]4(C)[C@H]3CC[C@]12C	0.324
CC(C)(O)CC[C@@H](O)[C@](C)(O)[C@H]1CC[C@@]2(O)C3=CC(=O)[C@@H]4C[C@@H](O)[C@@H](O)C[C@]4(C)[C@H]3CC[C@]12C [20-HYDROXYECDYSONE]	0.0457
C[C@@H]1C(=O)O[C@H](C)[C@H]1C[C@@H](O)[C@](C)(O)[C@H]1CC[C@@]2(O)C3=CC(=O)[C@@H]4C[C@@H](O)[C@@H](O)C[C@]4(C)[C@H]3CC[C@]12C [CYASTERONE]	0.0617
C[C@H]([C@H](O)CCC(C)(C)O)[C@H]1CC[C@@]2(O)C3=CC(=O)[C@@H]4C[C@@H](O)[C@@H](O)C[C@]4(C)[C@H]3CC[C@]12C [ECDYSONE]	2.57
CC(CO)CC[C@@H](O)[C@](C)(O)[C@H]1CC[C@@]2(O)C3=CC(=O)[C@@H]4C[C@@H](O)[C@@H](O)C[C@]4(C)[C@H]3CC[C@]12C (some centres undefined) [INOKOSTERONE]	0.0912
C[C@H](C[C@@H](O)[C@](C)(O)[C@H]1CC[C@@]2(O)C3=CC(=O)[C@@H]4C[C@@H](O)[C@@H](O)C[C@]4(C)[C@H]3CC[C@]12C)C(C)(C)O [MAKISTERONE A]	0.112
CC(C)CC[C@@H](O)[C@](C)(O)[C@H]1CC[C@@]2(O)C3=CC(=O)[C@@H]4C[C@@H](O)[C@@H](O)C[C@]4(C)[C@H]3CC[C@]12C [PONASTERONE A]	0.00129
